According to PMC6193035, “Novel small molecules affecting cell membrane as potential therapeutics for avian pathogenic Escherichia coli” (Scientific Reports, 2018):
Marks after values point to notes of the source that are not given here.

Columns and labels:
[1] = tested on: APEC O8; assay: MIC and MBC determination in M63 media; format: cell-based; conditions: Escherichia coli
[2] = tested on: APEC O78; assay: Bacterial cytological profiling by confocal microscopy; format: cell-based, Escherichia coli; conditions: 2X MBC, 2 h
Method: Confocal microscopy was used for bacterial cytological profiling (BCP) to identify the cellular pathways targeted by SMs as described previously. […] After incubation, treated cultures were centrifuged, washed, and resuspended in 100 µL PBS. FM4-64 (#T13320 Molecular Probes/Invitrogen) (1 µg/mL) and SYTO-9 (#S34854 Molecular Probes/Invitrogen) (5 µM) were added to the bacterial cultures and incubated for 45 mins at room temperature with shaking at 150 rpm. Cultures were then centrifuged, washed, and resuspended in PBS to 1/10th volume of the original cultures.

[3] = tested on: APEC O115; assay: MIC and MBC determination in M63 media; format: cell-based; conditions: Escherichia coli
[4] = tested on: intracellular APEC O78 in HD11 cells; assay: Intracellular survival assay; format: cell-based, Escherichia coli
Method: (§1) Intracellular survival assay was conducted as described previously[28],[29] to determine the effect of cidal SMs on APEC survival in phagocytic (HD11, THP-1) and non-phagocytic (Caco-2) cells. Briefly, mid-logarithmic phase grown APEC O78, O1, and O2 were washed and adjusted to 1 × 10^7 CFU/mL in cell culture incomplete media (no FBS and antibiotics). One-hundred microlitres adjusted APEC suspension was added at multiplicity of infection (MOI) 10 to wells of 96-well cell culture plate containing cultured macrophage (HD11, THP-1) and epithelial cells (Caco-2) and incubated for 1 h and 3 h, respectively. […] The cells were then lysed with 100 µL of 0.1% Triton X-100 for 5 mins, serially diluted, and plated on LB agar plate to enumerate viable bacteria. The intracellular bacteria in SMs treated wells were compared with DMSO (1%) treated wells. Two independent experiments in duplicate wells for each concentration of SMs were conducted.

[5] = tested on: intracellular APEC O78 in Caco-2 cells; assay: Intracellular survival assay; format: cell-based, Escherichia coli
Method: as §1

[6] = tested on: intracellular APEC O2 in THP-1 cells; assay: Intracellular survival assay; format: cell-based, Escherichia coli
Method: as §1

[7] = tested on: intracellular APEC O1 in THP-1 cells; assay: Intracellular survival assay; format: cell-based, Escherichia coli
Method: as §1

[8] = tested on: intracellular APEC O1 in Caco-2 cells; assay: Intracellular survival assay; format: cell-based, Escherichia coli
Method: as §1

[9] = tested on: intracellular APEC O2 in HD11 cells; assay: Intracellular survival assay; format: cell-based, Escherichia coli
Method: as §1

[10] = tested on: intracellular APEC O1 in HD11 cells; assay: Intracellular survival assay; format: cell-based, Escherichia coli
Method: as §1

[11] = tested on: intracellular APEC O2 in Caco-2 cells; assay: Intracellular survival assay; format: cell-based, Escherichia coli
Method: as §1

[12] = tested on: intracellular APEC O78 in THP-1 cells; assay: Intracellular survival assay; format: cell-based, Escherichia coli
Method: as §1

[13] = tested on: APEC O109; assay: MIC and MBC determination in M63 media; format: cell-based; conditions: Escherichia coli
[14] = tested on: APEC O2; assay: MIC and MBC determination in M63 media; format: cell-based; conditions: Escherichia coli
[15] = tested on: APEC O78; assay: Loss of 260/280 nm absorbing materials assay; format: cell-based, Escherichia coli; conditions: 2X MBC, 1 h
Method: (§2) Membrane permeability assays (crystal violet (CV) uptake and loss of 260/280 nm absorbing materials) were conducted as described previously. […] CV uptake was measured using the formula: (OD DMSO − OD SM/OD DMSO × 100). Two independent experiments in duplicates were conducted.

[16] = tested on: APEC O78; assay: MIC and MBC determination in M63 media; format: cell-based, Escherichia coli; conditions: Escherichia coli
Method: (§3) One microlitre SM of each concentration was transferred to each well of a 96-well plate containing 100 µL of the 0.05 OD600 adjusted APEC O78 culture in M63 media. Growth was monitored in Sunrise - Absorbance microplate reader as described above. MIC was indicated by lowest concentration of SM with non-elevated OD600 measurement. MBC was determined by absence of APEC growth on LB agar plate following subculture. […] Two independent experiments were conducted.

[17] = tested on: APEC O2-211; assay: MIC and MBC determination in M63 media; format: cell-based; conditions: Escherichia coli; APEC O2-211, M63 media
[18] = tested on: APEC O78; assay: Crystal violet (CV) uptake assay; format: cell-based, Escherichia coli; conditions: 2X MBC, 30 mins; P < 0.05, Student's t-test
Method: as §2

[19] = tested on: APEC O78-53; assay: MIC and MBC determination in M63 media; format: cell-based; conditions: Escherichia coli; APEC O78-53, M63 media
Method: as §3

CCN1/C(=C/c2ccc3ccccc3[n+]2CC)C=Cc2ccccc21 [SM9]
MBC [1]: 50 µM | MIC [1]: 25 µM | cytological profile (FM4-64 / SYTO-9 staining) [2]: filamentous or short rods (spheroplasts) morphology (PG synthesis inhibitors) | MBC [3]: 50 µM | MIC [3]: 25 µM | minimal effective concentration ([4]; Escherichia coli, O78, HD11, 6 h treatment, read-out: SMs intracellular APEC clearance concentration): 100 µM | intracellular APEC clearance concentration as multiple of MIC (superscript) ([4]; O78, HD11): c (4X MIC) | concentration at which the SM significantly (P < 0.01) reduced intracellular APEC (superscript of t-statistic) ([4]; O78, HD11, 6 h): c (2XMIC) | minimal effective concentration ([5]; Escherichia coli, O78, Caco-2, 6 h treatment, read-out: SMs intracellular APEC clearance concentration): 50 µM | intracellular APEC clearance concentration as multiple of MIC (superscript) ([5]; O78, Caco-2): b (2X MIC) | concentration at which the SM significantly (P < 0.01) reduced intracellular APEC (superscript of t-statistic) ([5]; O78, Caco-2, 6 h): b (1X MIC) | minimal effective concentration ([6]; Escherichia coli, O2, THP-1, 6 h treatment, read-out: SMs intracellular APEC clearance concentration): 50 µM | concentration at which the SM significantly (P < 0.01) reduced intracellular APEC (superscript of t-statistic) ([6]; O2, THP-1, 6 h): b (1X MIC) | minimal effective concentration ([7]; Escherichia coli, O1, THP-1, 6 h treatment, read-out: SMs intracellular APEC clearance concentration): 50 µM | intracellular APEC clearance concentration as multiple of MIC (superscript) ([7]; O1, THP-1): b (2X MIC) | concentration at which the SM significantly (P < 0.01) reduced intracellular APEC (superscript of t-statistic) ([7]; O1, THP-1, 6 h): b (1X MIC) | minimal effective concentration ([8]; Escherichia coli, O1, Caco-2, 6 h treatment, read-out: SMs intracellular APEC clearance concentration): 100 µM | intracellular APEC clearance concentration as multiple of MIC (superscript) ([8]; O1, Caco-2): c (4X MIC) | concentration at which the SM significantly (P < 0.01) reduced intracellular APEC (superscript of t-statistic) ([8]; O1, Caco-2, 6 h): c (2XMIC) | minimal effective concentration ([9]; Escherichia coli, O2, HD11, 6 h treatment, read-out: SMs intracellular APEC clearance concentration): 100 µM | intracellular APEC clearance concentration as multiple of MIC (superscript) ([9]; O2, HD11): c (4X MIC) | concentration at which the SM significantly (P < 0.01) reduced intracellular APEC (superscript of t-statistic) ([9]; O2, HD11, 6 h): c (2XMIC) | minimal effective concentration ([10]; Escherichia coli, O1, HD11, 6 h treatment, read-out: SMs intracellular APEC clearance concentration): 100 µM | concentration at which the SM significantly (P < 0.01) reduced intracellular APEC (superscript of t-statistic) ([10]; O1, HD11, 6 h): b (1X MIC) | minimal effective concentration ([11]; Escherichia coli, O2, Caco-2, 6 h treatment, read-out: SMs intracellular APEC clearance concentration): 100 µM | intracellular APEC clearance concentration as multiple of MIC (superscript) ([11]; O2, Caco-2): c (4X MIC) | concentration at which the SM significantly (P < 0.01) reduced intracellular APEC (superscript of t-statistic) ([11]; O2, Caco-2, 6 h): c (2XMIC) | minimal effective concentration ([12]; Escherichia coli, O78, THP-1, 6 h treatment, read-out: SMs intracellular APEC clearance concentration): 50 µM | intracellular APEC clearance concentration as multiple of MIC (superscript) ([12]; O78, THP-1): b (2X MIC) | concentration at which the SM significantly (P < 0.01) reduced intracellular APEC (superscript of t-statistic) ([12]; O78, THP-1, 6 h): b (1X MIC) | MBC [13]: 50 µM | MIC [13]: 25 µM | MBC [14]: 50 µM | MIC [14]: 25 µM | 260 nm absorbing materials in supernatant compared with DMSO [15]: significantly (P < 0.05, Student’s t-test) increased | 280 nm absorbing materials in supernatant compared with DMSO [15]: significantly (P < 0.05, Student’s t-test) increased | Absorbance 280 nm of treated supernatant ([15]; DMSO 2.58, superscript a P < 0.05 vs DMSO): 2.78^a | Absorbance 260 nm of treated supernatant ([15]; DMSO 3.77, superscript a P < 0.05 vs DMSO): 3.99^a | MIC [16]: 25 µM | MBC ([16]; subculture on LB agar): 50 µM | MBC [17]: 25 µM | MIC [17]: 25 µM | uptake of crystal violet compared with DMSO [18]: increased the uptake of crystal violet | MBC [19]: 25 µM | MIC [19]: 25 µM
